Tested on: 349418-098-R-PDC complex spheroid viability
Assay: Anticancer human tumor 349418-098-R-PDC patient-derived lung adenocarcinoma cell line growth inhibition [RAS]
Conditions: for IC50: curve of first compound; for viability, T/C: stronger effect = lower value
Excerpt: RAS pathway inhibitors in Combinations in Complex Spheroids
A high-throughput screen of multi-cell type tumor spheroids was designed to identify active combinations of RAS pathway inhibitors and targeted small molecules. Complex spheroids include a stromal component modeled by human endothelial cells (HUVEC) and fibroblasts modeled by human mesenchymal stem cells (MSCs). The concentration ranges selected for each drug and investigational agent were based upon clinically achievable concentrations if the clinical Cmax of the agent was known.
Compounds. The drugs and investigational agents: abemaciclib (NSC768073), cobimetinib (NSC768068), divarasib (GDC6063, NSC841802), docetaxel (NSC628503), GDC-1971 (RLY-1971, NSC841576), gemcitabine (NSC613327), inavolisib (NSC800729), ipatasertib (NSC767898), KB-0742 (NSC834161), MRTX-1133 (NSC836407), osimertinib (NSC779217), RMC-4630 (NSC839698), RMC-6236 (NSC851965), RMC-6291 (NSC852671), Ro-3306 (NSC812927), sapanisertib (NSC764658), SN-38 (NSC673596), staurosporine (NSC755774), SY5609 (NSC837396), and tovorafenib (DAY101, NSC766906), were obtained from the National Cancer Institute (NCI) Developmental Therapeutics Program Chemical Repository. The FDA-approved anticancer drug set is available from the NCI Developmental Therapeutics Program. […] The stock solutions were prepared in dimethyl sulfoxide (DMSO, Sigma-Aldrich, St. Louis, MO, cat. D2650) at 800-fold the tested concentration and stored at -70 degrees C prior to their use. All drugs and investigational agents were tested over a range starting from a high concentration at or near the clinical Cmax and decreasing in half-log increments. If the clinical Cmax for an agent had not been determined, the highest concentration tested was 10 microM.
Cell Culture. All cells were maintained in an incubator at 37 degrees C and 5% CO2 with 95% humidity. The PDC lines were cultured according to standard operating procedures established by the NCI PDMR. All PDCs were thawed and cultured in Matrigel-coated flasks prepared with a working solution of 1X Ham's F-12 nutrient mix, without supplementation (Invitrogen, Waltham, MA, cat. 11765054), 100 U/mL penicillin-streptomycin (Invitrogen, cat. 15140122), and 2.5% Matrigel (Corning Inc., Corning, NY, cat. 354248) for the first three passages. The 362531-283-R-J2-PDC and 782815-120-R-J1-PDC lines were cultured in 6C/Colon 1B media, which includes advanced DMEM/F-12 (Thermo Fisher Scientific, cat. 12634028), 10 mM HEPES (Thermo Fisher Scientific, cat. 15630080), 1X GlutaMAX supplement (Thermo Fisher Scientific, cat. 35050061), 0.1 mg/mL primocin (InvivoGen, San Diego, CA, cat. ant-pm-2), 10% defined fetal bovine serum, heat inactivated (HyClone Laboratories Inc., Logan, UT, cat. SH30070.03HI), 50% L-WRN conditioned media (ATCC, cat. CRL-3276), 1.25 mM N-Acetyl-L-cysteine (Sigma-Aldrich, cat. A9165), 10 mM nicotinamide (Sigma-Aldrich, cat. N0636), 1X B-27 supplement (Thermo Fisher Scientific, cat. 17504044), 1X N-2 supplement (Thermo Fisher Scientific, cat. 17502048), 50 ng/mL human EGF (Thermo Fisher Scientific, cat. PHG0311), and 10 microM Y-27632 dihydrochloride (Tocris Bioscience, cat. 1254). The K12877-001-R-J1-PDC line was cultured in 6I media, which includes all 6C/Colon 1B media plus 10 ng/mL human FGF-10 (PeproTech, cat. 100-26), 1 ng/mL human FGF-2 (PeproTech, cat. 100-18B), 1 µM prostaglandin E2 (Tocris Bioscience, cat. 2296), […] hydrocortisone (Sigma-Aldrich, cat. H4001), and […] bovine insulin (Sigma-Aldrich, cat. I6634). The K86415-001-R-J1-PDC line was cultured in 6D media, which includes all 6C/Colon 1B media components minus the L-WRN conditioned media. The 485176-168-R4-J1-PDC was cultured in PANC media, which includes all 6C/Colon 1B media plus 100 ng/mL human FGF-10 (PeproTech, cat. 100-26), 500 nM SB-431542 (Selleckchem, cat. S1067), and 10 nM gastrin (Tocris Bioscience, cat. 3006). […]
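Note: spheroids exposed to compound for seven days before viability readout.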

CCC(CC)c1cc(NC2CCC(N)C2)n2nccc2n1 (configuration not stated) + C#Cc1c(F)ccc2cc(O)cc(-c3ncc4c(N5CC6CCC(C5)N6)nc(OCC56CCCN5CC(F)C6)nc4c3F)c12
IC50 (second compound 0.0316 µM): 736 nM
IC50 (second compound 0.1 µM): 810 nM
IC50 (second compound 0.316 µM): 903 nM
IC50 (second compound 1 µM): 875 nM
IC50 (second compound 3.16 µM): 714 nM
IC50 (second compound 10 µM): < 31.6 nM
viability, T/C (second compound 0.0316 µM, first compound 0.0316 µM): 91.3%
viability, T/C (second compound 0.0316 µM, first compound 0.1 µM): 106%
viability, T/C (second compound 0.0316 µM, first compound 0.316 µM): 76.1%
viability, T/C (second compound 0.0316 µM, first compound 1 µM): 41.9%
viability, T/C (second compound 0.0316 µM, first compound 3.16 µM): 3.06%
viability, T/C (second compound 0.0316 µM, first compound 10 µM): 2.85%
viability, T/C (second compound 0.1 µM, first compound 0.0316 µM): 84.2%
viability, T/C (second compound 0.1 µM, first compound 0.1 µM): 107%
viability, T/C (second compound 0.1 µM, first compound 0.316 µM): 84.5%
viability, T/C (second compound 0.1 µM, first compound 1 µM): 42.6%
viability, T/C (second compound 0.1 µM, first compound 3.16 µM): 2.89%
viability, T/C (second compound 0.1 µM, first compound 10 µM): 2.86%
viability, T/C (second compound 0.316 µM, first compound 0.0316 µM): 91.3%
viability, T/C (second compound 0.316 µM, first compound 0.1 µM): 112%
viability, T/C (second compound 0.316 µM, first compound 0.316 µM): 106%
viability, T/C (second compound 0.316 µM, first compound 1 µM): 44.8%
viability, T/C (second compound 0.316 µM, first compound 3.16 µM): 4.03%
viability, T/C (second compound 0.316 µM, first compound 10 µM): 2.72%
viability, T/C (second compound 1 µM, first compound 0.0316 µM): 75.8%
viability, T/C (second compound 1 µM, first compound 0.1 µM): 85.6%
viability, T/C (second compound 1 µM, first compound 0.316 µM): 67.2%
viability, T/C (second compound 1 µM, first compound 1 µM): 48.9%
viability, T/C (second compound 1 µM, first compound 3.16 µM): 3.08%
viability, T/C (second compound 1 µM, first compound 10 µM): 3.26%
viability, T/C (second compound 3.16 µM, first compound 0.0316 µM): 75%
viability, T/C (second compound 3.16 µM, first compound 0.1 µM): 97.5%
viability, T/C (second compound 3.16 µM, first compound 0.316 µM): 83.2%
viability, T/C (second compound 3.16 µM, first compound 1 µM): 36.1%
viability, T/C (second compound 3.16 µM, first compound 3.16 µM): 3.69%
viability, T/C (second compound 3.16 µM, first compound 10 µM): 3.11%
viability, T/C (second compound 10 µM, first compound 0.0316 µM): 52.5%
viability, T/C (second compound 10 µM, first compound 0.1 µM): 44.7%
viability, T/C (second compound 10 µM, first compound 0.316 µM): 42.7%
viability, T/C (second compound 10 µM, first compound 1 µM): 20.4%
viability, T/C (second compound 10 µM, first compound 3.16 µM): 1.26%
viability, T/C (second compound 10 µM, first compound 10 µM): 0.7%

Reference: PubChem BioAssay AID2060904 (Molecular Pharmacology Branch, DTP, NCI, 2025)
